In US4395969A (priority 1981, dated 1983):
“And” between values parts separate entries of the source, which are not always exact repeats. Equal values may be shown once.

Columns and labels:
threespine stickleback [1] = tested on: threespine stickleback; design: species or system Gasterosteus aculeatus; details: in vivo
threespine stickleback [2] = test: Long-term static bioassay, threespine stickleback; details: 32 days, 10 C, individually
sockeye salmon = test: Static bioassay, lethal concentration to sockeye salmon; format: in vivo, O. nerka
Protocol: (§1) Bioassays utilized water from an artesian well at Moscow, Idaho and from the headwaters of the Palouse River, also in Idaho. The chemical characteristics of the artesian water were analyzed as follows: Total hardness 67-120 mg/l; total dissolved solids, 160-175 mg/l; and pH 7.1. The chemistry of the Palouse River water was analyzed as follows: total hardness 17 mg/l; methyl orange alkalinity 26 mg/l; total dissolved solids, 32 mg/l and pH, 7.0.
(§2) Fish were acclimated to test temperatures, usually at 5, 7.5, 10, 15 and 20 degrees Celsius (C), at least 60 hours before exposure to toxicants. For fish and crayfish four water baths regulated the temperature of assay aquaria. Each water bath contained a battery of 20 identical 19-liter clear glass containers or 11.4-liter plastic aquaria lined with disposable polyethylene bags and covered with Plexiglass lids to reduce evaporation. For larger fish and large numbers of fish the bioassays were made in two temperature controlled rooms that contained a series of 700-liter circular fiberglass vats and a series of 76- and 91-liter plastic containers.
(§3) Standard bioassay techniques were used in sorting fish and conducting the tests. Fish were placed in aerated test aquaria overnight to permit fish to recover from stress due to handling and to deprive them of food. The average load varied but most bioassays were conducted with about 1 g of fish per liter of water.
(§4) Aliquots of organophosphates were dissolved in ethanol and dispensed to the aquaria to provide concentrations suitable for obtaining the LC0 and LC50 of desirable fish and the LC50 and LC100 of target fish. Control fish were conditioned in the same manner as the test fish, but no chemical was added to the control vessels during the assays. After the addition of a chemical, observations were made mainly at 3, 6, 12, 24, 48, 96, and 192 h. The weight and fork length of fish were obtained when fishes were sacrificed.
(§5) Delineation bioassays determined primarily the LC50 and LC100 of sucker and stickleback and the LC0 and LC50 of salmonids.
(§6) The statistical LC1, LC50, and LC99 were interpolated and/or extrapolated using probit graph paper to approximate the LC0, LC50, and LC100 when the latter set of values was not closely determined by single concentrations in a series.
(§7) The approximate LC50 and LC100 of the target fishes (threespine and brook sticklebacks and bridgelip and white suckers) are tabulated in Table 1. The 96-hour selectivity and safety indices of selected species of salmonids versus the three-spine stickleback are tabulated in Table 3.
(§8) Threespine stickleback, brook stickleback, bridgelip sucker, white sucker, chinook salmon, coho salmon, sockeye salmon, kokanee, Kamloops trout, cutthroat trout, and brook trout were treated with various concentrations of 2, 2, 2, 1-tetrachloroethyl diethyl phosphate and at various temperatures to determine approximate selectivity and safety indices. The approximate LC50 and LC100 of the target fishes (threespine and brook sticklebacks and bridgelip and white suckers) are tabulated in Table 5. The 96-hour selectivity and safety indices of selected species of salmonids versus the threespine stickleback are tabulated in Table 7.

[3] = as above; format: in vivo, O. nerka; details: sockeye salmon, in vivo
Protocol: as §1, §2, §3, §4, §5, §6, §7, §8

suckers = test: Control of suckers in 24-hour applications, usable concentration; format: in vivo
From the text: For field applications the concentration of the dichloro- and tetrachloro-compounds would vary with water quality--mainly with regard to water temperature and hydrogen ion concentrations. Generally, treated areas would contain water low in dissolved solids and a pH of 7 to 7.5. The activity of the chemicals would then be essentially similar to that determined in our tests using river water. For the treatment of rivers and shorelines of lakes the concentrations of the dichloro- and tetrachloro-compounds that would be used would be those that would kill stickleback or suckers in 12 to 24 hours. The information above, relating to Examples 1 and 12, substantiates improvement in fish culture by the addition of dichloroethyl or dichlorovinyl diethyl phosphate to an aqueous habitat at a concentration in water ranging between 0.1 and 10 mg/l. […] The information above, relating to Example 2, substantiates improvement in fish culture by the addition of tetrachloroethyl diethyl phosphate to an aqueous habitat at a concentration in water ranging between 4 and 80 μg/l.

crayfish = test: Bioassay, crayfish; format: in vivo, Pacifasticus klamathensis; details: 10 C
Protocol: Cursory bioassays were made with small numbers of other fishes and a crayfish (Pacifasticus klamathensis) to check on the universal selectivity of the toxicants. The fishes included Arctic grayling (Thymallus arcticus), longnose sucker (C. catastomus), largescale sucker, (C. macrocheilus), and spotted sucker (Minytrema melanops).
A series of bioassays tested crayfish (9 to 10 crayfish per aquarium) at concentrations of 1, 3, and 10 mg/l of 2, 2-dichlorovinyl diethyl phosphate. […] A second series of bioassays tested crayfish (10 crayfish per aquarium) at 10 concentrations of 2, 2, 2, 1-tetrachloroethyl diethyl phosphate (range, 0 to 1400 μg/l).

brook trout = test: Static bioassay, lethal concentration to brook trout; format: in vivo, Salvelinus fontinalis; details: 15 C
Protocol: as §1, §2, §3, §4, §5, §6, §7, §8

[4] = as above; format: in vivo, Salvelinus fontinalis; details: brook trout, water, 15 C
Protocol: as §1, §2, §3, §4, §5, §6, §7, §8

white sucker = test: Static bioassay, lethal concentration to white sucker; format: in vivo, C. commmersoni
Protocol: as §1, §2, §3, §4, §5, §6, §7, §8

[5] = Static bioassay, lethal concentration to cutthroat trout; format: in vivo, S. clarki; details: cutthroat trout, water
Protocol: as §1, §2, §3, §4, §5, §6, §7, §8

cutthroat trout = test: as above; format: in vivo, S. clarki
Protocol: as §1, §2, §3, §4, §5, §6, §7, §8

[6] = 10 C, individually, read-out: LC50
[7] = with 2 Cl 1:300, 10 C, read-out: LC50 in combination, 4 Cl component
[8] = with 4 Cl 300:1, 10 C, read-out: LC50 in combination, 2 Cl component

CCOP(=O)(OCC)OC(Cl)C(Cl)(Cl)Cl (centres unmarked) [2,2,2,1-tetrachloroethyl diethyl phosphate]
LC50 in combination, 4 Cl component (threespine stickleback [1]): 1.0 µg/L and 0.67 µg/L
concentration achieving 100% mortality (threespine stickleback [1]): 7 mg/L
mortality (threespine stickleback [2]; 4 μg/l): 100%
LC0 (sockeye salmon; 7.5 C, 48 h): 36 µg/L
LC0 (sockeye salmon; 7.5 C, 96 h): 14 µg/L
LC0 (sockeye salmon; 7.5 C, 192 h): 10 µg/L
LC0 (sockeye salmon; 10 C, 48 h): 20 µg/L
LC50 (sockeye salmon; 10 C, 96 h, individually): 17 µg/L
LC0 (sockeye salmon; 10 C, 96 h, individually, listed as 2, 2, 2, 1-tetrachloroethyl diethyl phosphate): 12 µg/L and 10 µg/L
LC0 (sockeye salmon; 10 C, 96 h, individually, listed as 4 Cl): 12 µg/L
LC0 (sockeye salmon; 10 C, 192 h): 10 µg/L
LC50 (sockeye salmon; 10 C, 192 h, individually, listed as 4 Cl, 11520 min): 15 µg/L
LC50 at 48 h ([3]; 7.5 C): 0.05 µg/mL
LC50 at 96 h ([3]; 7.5 C, read-out: LC50): 0.02 µg/mL
LC50 at 192 h ([3]; 7.5 C, read-out: LC50): 0.014 µg/mL
LC50 at 48 h ([3]; 10 C): 0.03 µg/mL
LC50 at 96 h [3, 6]: 0.017 µg/mL
LC50 at 192 h [3, 6]: 0.016 µg/mL
LC50 at 96 h [3, 7]: 0.008 µg/mL
LC50 at 192 h [3, 7]: 0.006 µg/mL
estimated LC100 of the sucker (suckers; relative to 6 to 4 μg/l for stickleback, 10 C): essentially the same
concentration at which no crayfish died (crayfish; 96 h): ≤ 200 µg/L
LC0 (brook trout; 48 h): 10 µg/L
LC0 (brook trout; 96 h): 10 µg/L
LC0 (brook trout; 192 h): 10 µg/L
LC50 at 48 h [4]: 0.022 µg/mL
LC50 at 96 h [4]: 0.02 µg/mL
LC50 at 192 h [4]: 0.02 µg/mL
LC50 (white sucker; 15 C, 24 h): 0.004 mg/L
LC100 (white sucker; 15 C, 24 h): 10 µg/L
LC50 (white sucker; 15 C, 48 h): < 0.003 mg/L
LC100 (white sucker; 15 C, 48 h): 10 µg/L
LC50 at 96 h ([5]; 10 C): 0.019 µg/mL
LC50 at 192 h ([5]; 10 C): 0.017 µg/mL
LC50 at 48 h ([5]; 15 C): 0.022 µg/mL
LC50 at 96 h ([5]; 15 C): 0.018 µg/mL
LC50 at 192 h ([5]; 15 C): 0.018 µg/mL
LC0 (cutthroat trout; 10 C, 96 h): 14 µg/L
LC0 (cutthroat trout; 10 C, 192 h): 14 µg/L
LC0 (cutthroat trout; 15 C, 48 h): 14 µg/L
LC0 (cutthroat trout; 15 C, 96 h): 14 µg/L
LC0 (cutthroat trout; 15 C, 192 h): 14 µg/L

CCOP(=O)(OC=C(Cl)Cl)OCC [2,2-dichlorovinyl diethyl phosphate]
LC50 in combination, 2 Cl component (threespine stickleback [1]): 300 µg/L and 200 µg/L
mortality (threespine stickleback [2]; 600 μg/l): 65%
LC0 (sockeye salmon; 7.5 C, 48 h): > 10000 µg/L
LC0 (sockeye salmon; 7.5 C, 96 h): 6000 µg/L
LC0 (sockeye salmon; 7.5 C, 192 h): 2000 µg/L
LC0 (sockeye salmon; 10 C, 48 h): 6000 µg/L
LC0 (sockeye salmon; 10 C, 96 h): 3000 µg/L
LC0 (sockeye salmon; 10 C, 96 h, individually, listed as 2, 2-dichlorovinyl diethyl phosphate): 3000 µg/L
LC0 (sockeye salmon; 10 C, 96 h, individually, listed as 2 Cl): 3600 µg/L
LC0 (sockeye salmon; 10 C, 192 h): 2000 µg/L
LC50 at 48 h ([3]; 7.5 C): > 10 µg/mL
LC50 at 96 h ([3]; 7.5 C, read-out: LC50): 9 µg/mL
LC50 at 192 h ([3]; 7.5 C, read-out: LC50): 4 µg/mL
LC50 at 48 h ([3]; 10 C): > 8 µg/mL
LC50 at 96 h [3, 6]: 6 µg/mL
LC50 at 96 h ([3]; 10 C, read-out: LC50): 6 µg/mL
LC50 at 192 h [3, 6]: 3.6 µg/mL
LC50 at 192 h ([3]; 10 C, read-out: LC50): 3.4 µg/mL
LC50 at 96 h [3, 8]: 2.4 µg/mL
LC50 at 192 h [3, 8]: 1.8 µg/mL
recommended safe and effective concentration (suckers; 10 to 15 C, river water tests): 1.0 mg/L
crayfish mortality (crayfish; 1 mg/l, 96 h): No crayfish died
crayfish mortality (crayfish; 3 mg/l, 96 h): 1 out of 9 crayfish died
crayfish mortality (crayfish; 10 mg/l, 24 h): No crayfish died
LC0 (brook trout; 48 h): 4000 µg/L
LC0 (brook trout; 96 h): 2000 µg/L
LC0 (brook trout; 192 h): 800 µg/L
LC50 at 48 h [4]: 5 µg/mL
LC50 at 96 h [4]: 3.3 µg/mL
LC50 at 192 h [4]: 3.2 µg/mL
LC50 (white sucker; 20 C, 24 h): 0.10 mg/L
LC50 (white sucker; 20 C, 48 h): 0.07 mg/L
LC50 (white sucker; 20 C, 96 h): 0.06 mg/L
LC100 (white sucker; 20 C, 96 h): 100 µg/L
LC50 (white sucker; 20 C, 192 h): 0.05 mg/L
LC100 (white sucker; 20 C, 192 h): 100 µg/L
LC50 at 192 h ([5]; 10 C): 4.8 µg/mL
LC50 at 48 h ([5]; 15 C): 5.3 µg/mL
LC50 at 96 h ([5]; 15 C): 2.5 µg/mL
LC50 at 192 h ([5]; 15 C): 1.8 µg/mL
LC0 (cutthroat trout; 10 C, 96 h): 4000 µg/L
LC0 (cutthroat trout; 15 C, 48 h): 4000 µg/L
LC0 (cutthroat trout; 15 C, 96 h): 2000 µg/L
LC0 (cutthroat trout; 15 C, 192 h): 1000 µg/L
